Experimental data: patent US10265276B2, “Pharmaceutical composition for preventing or treating arthritis or inflammatory disease containing 2-methoxy-4-(3-(4-methoxyphenyl)propyl-1-en-1-yl)phenol as active ingredient” (CHUNGBUK NATIONAL UNIVERSITY INDUSTRY-ACADEMIC COOPERATION …, priority 2015, dated 2019)

Test system: CAIA-induced C57BL/6 mice
Experiment: Collagen antibody-induced arthritis (CAIA) model
Type: in vivo, mouse
Conditions: 5 mg/kg, p.o. daily
Experimental: 14. Induction of rheumatoid arthritis in C57BL/6 mice: To induce rheumatoid arthritis, anti-collagen-II mAbs (CII-Ab, Arthrogen-CIA Arthritogenic Monoclonal Antibody, #53010: Chondrex, Inc., WA, USA) were intraperitoneally (i.p.) injected into 7-week-old male mice on the first day, and 50 μg of LPS was injected on the third day. To evaluate the severity of arthritis, a scoring system was applied according to the criteria.
0. No erythema and swelling are observed.
1. Slight erythema is observed in tarsals and ankle joints.
2. Slight erythema and swelling are observed from an ankle joint to the midfoot.
3. Erythema and swelling extending from ankle joints to the metatarsals are observed.
4. Erythema and severe swelling were observed throughout the ankles, feet, and fingers.
The sum of final scores was recorded daily until the sum reached 16. On the 18th day, each of the mice was anesthetized, and then located on a radiographic view box. Thereafter, a location of each of the mice was adjusted so that the mouse was disposed at a distance of 90 cm from an X-ray source. The radioanalysis on hind legs with arthritis was performed by irradiating the hind legs at […] for 0.01 seconds using an X-ray machine (BLD-150RK, Hradec Kralove, Czech Republic).
15. Immunohistochemical assay: An immunohistochemical assay was carried out using an avidin-biotin-peroxidase method known in the art. Each of joint tissue samples collected from the mice was fixed with formalin, and embedded in paraffin. These samples were continuously microtomed into sections with a thickness of 4 μm. Each of the sections was stained with haematoxylin/eosin (H&E), anti-COX-2 and anti-iNOS antibodies (Caymen Chemical, Ann Arbor, Mich.).
Referring to FIG. 10(A), MMPP (5 mg/kg, p.o.) (dissolved in 100 μL of PBS including 0.5 μL of DMSO), a vehicle (a negative control), or indomethacin (5 mg/kg, p.o./dissolved in […] of PBS after the dissolution) was administered daily to 7-week-old male C57BL/6 mice for 18 days.

COc1ccc2c(c1)c(CC(=O)O)c(C)n2C(=O)c1ccc(Cl)cc1 [indomethacin, reference compound]
clinical score lower than that of the CAIA group: 64.8%
